Assay: Rhodamine release from chemically cross-linked poly(dimethyl siloxane) microcapsules (fluorescence photomicrographs, confocal microscopy)
Format: physicochemical
Text: FIGS. 18(a)-(c). A series of photomicrographs (200× magnification) depicting a population of rhodamine B-containing chemically cross-linked elastomeric microcapsules one hour and one year after manufacturing. […] In Particular:
Elastomer-Permeable Therapeutic Agent Microencapsulation. Rhodamine dye was encapsulated within chemically cross-linked poly(dimethyl siloxane) microcapsules utilizing the hydrophilic agent encapsulation methods at low concentrations due to the hydrophilicity of the aqueous solution. However, rhodamine is hydrophobic and permeates vulcanized poly(dimethyl siloxane) in the same fashion as a hydrophobic therapeutic agent. The resultant population of microspheres was sieved and re-suspended in a dilute aqueous poly(vinyl alcohol) solution. Upon resuspension in the rhodamine-free aqueous solution, a series of fluorescence photomicrographs were obtained.
To further investigate the shell-permeability and partition coefficient of the rhodamine within chemically cross-linked elastomeric microcapsules samples of the population of microcapsules that was tested for release were imaged by confocal microscopy.

extended release of a model therapeutic (duration) (rhodamine in aqueous cores of cross-linked poly(dimethyl siloxane) microcapsules, in dilute aqueous poly(vinyl alcohol), unstirred at room temperature): greater than one year | burst effect (upon resuspension in rhodamine-free aqueous solution): No burst effect was observed
Structure (SMILES): CCN(CC)c1ccc2c(-c3ccccc3C(=O)O)c3ccc(=[N+](CC)CC)cc-3oc2c1 [Rhodamine dye, rhodamine B]

Source: patent US20080175918A1, “CHEMICALLY CROSS-LINKED ELASTOMERIC MICROCAPSULES” (priority 2005, published 2008)
